This note sets out measurements from patent publication US20250381269A1, “BISPECIFIC ANTIBODY BINDING EGFR AND B7-H3” (FORTVITA BIOLOGICS (SINGAPORE) PTE. LTD., priority 2022, published 2025).

This test relates to LS180. Kind of test: Proliferation inhibition experiment, LS180 (CRC). Type of test: cell-based. As to conditions: EGFR R521K, KRAS G12D. The protocol:
• (1) NSCLC: plated at 1500-2500 cells/100 μL in a 96-well low-adsorption plate (Corning, CLS7007-24EA) for 3D cell culture, in which the following cell lines and specific amounts were used: • NSCLC: 2000 cells/100 μL/well • NCI-H292: Cell Bank of the Chinese Academy of Sciences, SCSP-582 • NCI-H322: Cobioer, CBP60134 • NCI-H1650: ATCC, CRL-5883 • NCI-H1975: ATCC, CRL-5908 • SK-MES-1: CoBioer, CBP60152 • NCI-H1703: ATCC, HTB-43 • PC9+hB7H3: constructed as described above • CRC and HNSCC: plated at 1500-2000 cells/100 μL in a 96-well white-bottom plate (NUNC, 136101) for 2D cell culture, in which the following cell lines and specific amounts were used: • CRC: 1500 cells/100 μL/well • CCK-81: CoBioer, CBP60581 • HT-55: CoBioer, CBP60012 • H508: CoBioer, CBP60795 • LS180: CoBioer, CBP60034 • HNSCC: 1500 cells/100 μL/well • TE-1: CoBioer, CBP60655 • Colo680: CoBioer, CBP60452. […]

As to zalutumumab [Zalu mAb], the “Max inhibition (%) Mean ± SD” value is recorded as 41.0 ± 2.2%.
